Laboratory results from PubChem BioAssay AID504322 (Emory University Molecular Libraries Screening Center, 2011).
pIC50: −log10 of the molar value. Active and inactive are the calls of the source. The rule behind the calls is not given here.

Tested on: CHOP reporter cell assay, percent of control
Experiment: CHOP reporter inhibitor potency, dose response, cell-based (AID 504322);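 note: CHO cells carrying a CHOP reporter stimulated with tunicamycin to induce ER stress; potency is for inhibition of the stress-induced reporter signal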

SMILES	IC50	pIC50
CCCC(=O)OCCNc1cc(Sc2nc3ccccc3[nH]2)c2nonc2c1[N+](=O)[O-]	5.35 µM (inactive)	–
O=C(Nc1ccc(Oc2ccccc2)cc1)C1CCN(c2c3c(nc4ncnn24)CCC3)CC1	> 10 µM (inactive)	–
Cc1ccc(C(C(=O)NCc2ccco2)N(C(=O)CNC(=O)c2cccs2)c2c(C)cccc2C)cc1 (stereo unspecified)	> 10 µM (inactive)	–
O=C(NCc1ccccc1)c1cc(-c2ccncc2)nc2ccc(S(=O)(=O)N3CCOCC3)cc12	9.8 µM (inactive)	–
CC1=CC(C)(C)N2C(=O)C3(SCC(=O)N3c3ccc(F)cc3)c3cc(C)cc1c32 (stereo unspecified)	> 10 µM (inactive)	–
COc1ccc(Cn2c(C)c(C)c(C#N)c2NC(=O)Nc2ccc(Cl)cc2)cc1	7.29 µM (inactive)	–
CCCOc1ccc(N2C(=O)CC(SC(=NCC)Nc3cccc(F)c3)C2=O)cc1 (stereo unspecified)	8.9 µM (inactive)	–
CCCNC(=O)c1nnsc1S(=O)(=O)c1ccc(Cl)cc1	2.02 µM (inactive)	–
Cc1nnc(NC(=O)c2sc3nc(-c4cccs4)cc(C(F)(F)F)c3c2N)s1	5.97 µM (inactive)	–
Cc1ccc(/C=C2\SC(=S)N(CCCC(=O)Nc3ccc(O)cc3)C2=O)cc1	–	6.77
COc1cc(-c2nc3ccc4ccccc4c3c3c2CCC3)cc(OC)c1O	> 10 µM (inactive)	–
COc1ccc(N2C(=O)CC(Sc3nnnn3-c3ccc(F)cc3)C2=O)cc1 (stereo unspecified)	–	6.62
CCCCn1c(NS(=O)(=O)c2ccccc2)c(S(=O)(=O)c2ccc(C)cc2)c2nc3ccccc3nc21	9.67 µM (inactive)	–
CCOC(=O)/C(=C\c1ccc(OC(F)F)cc1)C1=Nn2c(nnc2-c2ccc(Cl)cc2)SC1	3.2 µM (inactive)	–
O=C(O)CSCC(=O)Nc1ccc(C2CCCCC2)cc1	–	6.27
CC(C)CCSc1nc2c(c(=O)[nH]c(=O)n2C)n1CCCc1ccccc1	–	5.28
CC(C)Cn1c(N)c(C(=O)COC(=O)CC23CC4CC(CC(C4)C2)C3)c(=O)n(C)c1=O	–	6.09
Cn1c(=O)[nH]c(=O)c2c1nc([N+](=O)[O-])n2Cc1ccccc1	–	5.33
COCCn1c(=NC(=O)/C=C/c2cccs2)sc2cc(NC(C)=O)ccc21	> 10 µM (inactive)	–
O=C(OCn1ncc(Br)c(Br)c1=O)c1c(F)cccc1F	–	6.12
O=C(Nc1cccc(Cl)c1)Nc1ccnc(-c2cccnc2)n1	> 10 µM (inactive)	–
COc1ccc(C(=O)/C=C/C(=O)N(CC(=O)NCCC(C)C)Cc2cccs2)c(O)c1	9.55 µM (inactive)	–
O=C(NC(Nc1nc2ccc([N+](=O)[O-])cc2s1)(C(F)(F)F)C(F)(F)F)c1ccccc1Cl	–	6.06
CCCCc1ccc(NC(=S)Nc2ccc(Cl)c(S(=O)(=O)N(C)C)c2)cc1	> 10 µM (inactive)	–

SMILES	IC50	pIC50
O=C(Oc1ccc(O)cc1)C12CC3CC(CC(C3)C1)C2	> 10 µM (inactive)	–
CCOc1cccc(C(=O)Nc2cccc(-c3nnc(-c4ccc(C)cc4)o3)c2)c1	–	5.58
CCCCc1ccc(Nc2nc(CCC)cc(=O)[nH]2)cc1	1.97 µM (inactive)	–
Cc1ccc(-n2ncc(Br)c(Br)c2=O)cc1	–	5.32
Cc1nc(SCC(=O)Nc2cc(C)on2)c2c3c(sc2n1)CCCC3	> 10 µM (inactive)	–
CCOC(=O)c1c(C(C)(C)C)oc2ccc(O)cc12	9.38 µM (inactive)	–
CN1/C(=C\C=C\C2=[N+](C)c3ccc4ccccc4c3C2(C)C)C(C)(C)c2ccccc21	0.41 µM (inactive)	–
CC(C)CCn1c(=O)c(C(=O)N/N=C/c2cccc(F)c2)c(O)c2ccccc21	–	5.53
O=c1[nH]c(NNC(=S)NC2CCCCC2)nc2c1C1(CCCC1)Cc1ccccc1-2	4.1 µM (inactive)	–
Cc1ccc(S(=O)(=O)CC#CCOC(=O)c2ccc([N+](=O)[O-])cc2)cc1	> 10 µM (inactive)	–
Cc1ccc(CNCc2cc3c(C(C)(C)C)nn(-c4ccccc4)c3[nH]c2=O)cc1	7.24 µM (inactive)	–
CCCCn1c(=O)c(C(=O)Nc2cnccn2)c(O)c2ccccc21	7.31 µM (inactive)	–
COc1ccc(NC(=O)/C(Cl)=C(/Cl)S(=O)(=O)Cc2ccc(C)cc2)cn1	> 10 µM (inactive)	–
CCCCCCn1c(CN2CCCC(C)C2)nc2c1c(=O)n(C)c(=O)n2C (stereo unspecified)	> 10 µM (inactive)	–
O=C(Nc1ccccc1C(F)(F)F)c1cc(-c2ccc(O)cc2)on1	9.47 µM (inactive)	–
Cc1ccc(CNCC(O)(c2ccccc2)c2ccc(Cl)cc2)cc1 (stereo unspecified)	9.63 µM (inactive)	–
CCOC(=O)c1c(/N=C/c2c(O)n(-c3cccc(C)c3)c(=O)[nH]c2=O)sc2c1CCCC2	–	5.62
CC(=O)C1=C(c2ccc(Br)cc2)C(=O)c2ccccc2C1=O	5.57 µM (inactive)	–
COc1ccccc1C(=O)Oc1ccc(C(C)C)cc1	> 10 µM (inactive)	–
Fc1ccc(-c2nn(-c3ccccc3)cc2CNCc2ccccc2)cc1	9.62 µM (inactive)	–
CCOc1ccc(N(CC(=O)Nc2cccc(Cl)c2)S(=O)(=O)c2c(C)noc2C)cc1	–	5.69
COc1cc(/C=C2\CC/C(=C\c3cc(OC)c(O)c(OC)c3)C2=O)cc(OC)c1O	1.84 µM (inactive)	–
COc1ccc(/C=C2\SC(=S)N(CCCC(=O)Nc3ccc(O)cc3)C2=O)cc1	–	> 6.80
Cc1ccc(NC2=C/C(=N\S(=O)(=O)c3cccs3)c3ccccc3C2=O)c(C)c1	–	5.34

SMILES	IC50	pIC50
N=c1n(CC(=O)c2ccc([N+](=O)[O-])cc2)c2ccccc2n1Cc1ccc(Cl)cc1	> 10 µM (inactive)	–
CSc1nc(-c2ccccc2)nc(C(Cl)Cl)n1	–	5.29
Nc1cccc(Nc2nc(OC(C(F)(F)F)C(F)(F)F)nc(OC(C(F)(F)F)C(F)(F)F)n2)c1	3.09 µM (inactive)	–
C#CC(=O)N(c1cc(OC)ccc1OC)C(C(=O)NC1CCCC1)c1cccs1 (stereo unspecified)	> 10 µM (inactive)	–
COC(=O)c1ccccc1NC1=C/C(=N\S(=O)(=O)c2cccs2)c2ccccc2C1=O	> 10 µM (inactive)	–
C=CCSc1nc2ccccc2n1C(=O)/C=C/c1cc(OC)c(OC)c(OC)c1	–	5.38
CCCCN=c1scc(-c2ccc3c(c2)NC(=O)CO3)n1N=C1CCCC1	8 µM (inactive)	–
O/N=C(\c1ccc(Cl)cc1Cl)c1ncc(C(F)(F)F)cc1Cl	2.2 µM (inactive)	–
Cc1nc(SCC(=O)Nc2ccc(F)cc2)c(C#N)c(C)c1CC(=O)c1ccc(Br)cc1	> 10 µM (inactive)	–
O=C1CC(c2ccccc2Cl)CC(O)=C1C=Nc1ccccc1 (stereo unspecified)	6.54 µM (inactive)	–
C=C(C)COc1ccc(-c2[nH]ncc2Oc2ccccc2OCC)c(O)c1	–	5.71
CC(C)c1ccccc1NC(=O)Cn1c(/C=C/c2ccccc2)nc2ccccc21	5.88 µM (inactive)	–
Nc1c(C(=O)Nc2ccc(S(=O)(=O)N3CCCC3)cc2)sc2nc3ccc(OC(F)(F)F)cc3cc12	6.79 µM (inactive)	–
C=C1C(=O)O[C@@H]2C[C@@H](C)[C@@H]3C=CC(=O)[C@@]3(C)[C@@H](O)[C@H]12	–	5.58
Cc1ccc(C)c(NC(=S)NC(NC(=O)/C=C/c2ccccc2)C(Cl)(Cl)Cl)c1 (stereo unspecified)	9.63 µM (inactive)	–
O=[N+]([O-])c1ccc(/C=N/n2c(C3CCCCC3)n[nH]c2=S)cc1	9.52 µM (inactive)	–
O=C(Nc1ccccc1NC(=O)NC1CCCCC1)NC1CCCCC1	8.46 µM (inactive)	–
FC(F)(F)c1cccc(CN2CCC(c3cc(-c4cccs4)n[nH]3)CC2)c1	9.4 µM (inactive)	–
CC(C)(C)c1ccc(O)c(N=Cc2cc(Br)ccc2O)c1	9.15 µM (inactive)	–
CC(=O)NCc1ccc(C(=O)CCl)s1	9.42 µM (inactive)	–
Cc1ccc(Cn2c(SCC(=O)Nc3cc(C)on3)nc3ccccc3c2=O)cc1	5.78 µM (inactive)	–
CCOc1ccc(/C=N/NC(=O)c2cc(-c3ccco3)nc3ccccc23)cc1	5.15 µM (inactive)	–
CCOC(=O)/C=C/S(=O)(=O)c1ccc(NC(C)=O)cc1	–	5.32
CCOC(=O)c1c(N)sc(C(O)(C(F)(F)F)C(F)(F)F)c1-c1ccc(Cl)cc1	9.37 µM (inactive)	–

SMILES	IC50	pIC50
COc1cccc(NC(=O)CSc2nnc(-c3cc(C)n(-c4ccccc4)c3C)o2)c1	1.76 µM (inactive)	–
O=c1[nH]c2ccccc2n1C1CCN(CCCC(c2ccc(F)cc2)c2ccc(F)cc2)CC1	6.34 µM (inactive)	–
Cc1ccc(/C=N/N2C(=S)SC(C)(C)C2N(O)C(=O)Nc2ccc([N+](=O)[O-])cc2)cc1 (stereo unspecified)	2.67 µM (inactive)	–
COC(=O)c1ccc2c(=O)n(CCCCCC(=O)N3CCN(c4ccccc4)CC3)c(=O)[nH]c2c1	9.65 µM (inactive)	–
Cc1ccc(/C=N/n2c(C3CCCCC3)n[nH]c2=S)s1	5.3 µM (inactive)	–
C=CCc1cccc(/C=N/NC(=O)CCCNc2ccc(C)cc2)c1O	9.23 µM (inactive)	–
Cc1cc(C2=NNC(=NC3CC3)SC2)c(C)n1-c1ccccc1F	–	> 6.80
COc1ccc(-c2cc(C3CCN(Cc4cccc(C(F)(F)F)c4)CC3)[nH]n2)cc1	4.11 µM (inactive)	–
C/C(=N\N=C1\NC(=O)C(CC(=O)Nc2ccc(C)c(Cl)c2)S1)C(C)(C)C (stereo unspecified)	9.43 µM (inactive)	–
N=c1n(Cc2ccccc2)c2ccccc2n1CC(O)COc1ccc(Cl)cc1Cl (stereo unspecified)	6.92 µM (inactive)	–
CCCCCCn1c(SCCC)nc2c1c(=O)[nH]c(=O)n2C	–	5.27
COc1ccc(NC(=O)/C(Cl)=C(/Cl)S(=O)Cc2ccc(Cl)cc2)cn1 (stereo unspecified)	–	5.70
O=C1CC(Sc2nnnn2-c2ccccc2)C(=O)N1c1cccc(Cl)c1 (stereo unspecified)	> 10 µM (inactive)	–
C=CCc1cc(C)ccc1OCC(O)CN1CCN(c2ccccc2)CC1 (stereo unspecified)	3.94 µM (inactive)	–
CC1=CC(=O)C=C(C)C1=NOS(=O)(=O)c1ccccc1	5.48 µM (inactive)	–
Cc1nc(Nc2nc(CSc3nc4ccccc4[nH]3)cc(=O)[nH]2)nc2ccccc12	5.68 µM (inactive)	–
O=c1c(Cl)c(Cl)cnn1-c1ccccc1	9.45 µM (inactive)	–
O=C(C1=C(c2ccccc2)C(=O)c2ccccc2C1=O)c1ccccc1	–	5.33
Cc1nc2ccccn2c1C(=O)N=Nc1c(O)n(CCC(C)C)c2ccccc12	> 10 µM (inactive)	–
COc1ccc(OCc2cccc(C(=O)O)c2)cc1	–	6.06
Cc1ccc(OCC(=O)N/N=C/c2cn[nH]c2-c2ccc(Cl)c(Cl)c2)cc1	6.3 µM (inactive)	–
Fc1ccc(-n2nnnc2-c2cnc(-c3cccs3)nc2C(F)(F)F)cc1	6.67 µM (inactive)	–
COc1cc(N(C(=O)Cc2cccs2)C(C(=O)NC2CCCCC2)c2ccc(C)cc2)ccc1-n1cnnn1 (stereo unspecified)	9.94 µM (inactive)	–
CC(C)c1ccc(C2C3CSCC=C3C(C#N)=C(N)C2(C#N)C#N)cc1 (stereo unspecified)	9.55 µM (inactive)	–
